Test results: patent publication US5905085A, “Trans cyclopentanyl deazaadenyl analogs useful as immunosuppressants” (Hoechst Marion Roussel, Inc., priority 1997, dated 1999)
Where a name gives a salt, the structure may show the parent alone.

Assays:
[1] = test system: endotoxin-induced septic shock in CFl mice; experiment: Regulation of endotoxin lethality (mouse endotoxin lethality model); type: in vivo; conditions: 100 mg/kg i.p., pretreated at t = -1 hr; challenge D-galactosamine 18 mg and LPS 50 ng; observed 8-72 hour
Method: Using the method of Silverstein, (J. Exp. Med. 173, 357 (1991)) a mouse endotoxin lethality model may be used to determine if a compound of formula (1) has the ability to inhibit endotoxin-induced septic shock which is dependent on the production of Tumor Necrosis Factor-α (TNF-α). CFl mice pretreated at time (t)=-1 hr with drug are challenged with 18 mg of D-glactoseamine and 50 ng of LPS, then observed for death over an 8-72 hour period.

[2] = test system: rat macrophage antigen presentation to LEW/N rat T-cell hybridoma (Interleukin-2 production); experiment: Regulation of antigen presentation to rat T-cell hybridoma (Interleukin-2 production); type: cell-based
Method: Using the method of Ku (Cellular Immunology 130,(1990)) and a Lewis (LEW/N) rat T-cell hybridoma reactive with the protein methylated bovine serum albumin (mBSA), the ability of a compound of formula (1) to regulate M.phi. antigen presentation in vitro may be measured. Peritoneal macrophages obtained from LEW/N rats are plated into tissue culture and treated with 100 ug of mBSA and drug A control is prepared similarly. After a period of 18 hours the cells are washed and incubated with the T-cell hybridoma for an additional 12 hours. Supernatants from these cultures are obtained and measured for content of Interleukin-2, a T-cell derived lymphokine which is produced by activated T-cells. […] Rat macrophage antigen presentation and the subsequent production of Interleukin-2 are inhibited when drug is administered over a concentration range from 0.1 to 100 uM as illustrated in the following table.

[3] = test system: MHC class II antigen on rat macrophages; experiment: Regulation of MHC class II expression on macrophages (flow cytometry, OX-6/OX-42); type: cell-based
Method: Using the method of Edwards (J. of Cell Biochemistry 5E, 155(1991)), the ability of a compound of formula (1) to reduce Major Histocompatibility complex (MHC) class II antigen levels on macrophages (M.phi.) obtained from M.tuberculosis-treated rats may be measured. Cells obtained from treated rats are plated into tissue culture for a period of 4 hours to purify adherent cells, then treated with increasing levels of drug for a period of 18 hours. After this incubation period, cells are scraped from the dishes and stained using flow cytometry analysis with various monoclonal antibodies such as OX-6 a monoclonal antibody specific for MHC class II antigens and OX-42 a monoclonal antibody specific for rat macrophages.

[4] = test system: Tumor Necrosis Factor alpha; experiment: Inhibition of Tumor Necrosis Factor alpha in LPS-stimulated PBMC (ELISA); type: cell-based; conditions: human PBMC adherent cells, 1 μg/ml LPS from E. coli, 18 hours; read-out: IC50 (TNF-α inhibition)
Method: Peripheral blood mononuclear cells (PBMC) are isolated from venous blood collected from healthy volunteers in sodium citrate (5 ml of 3.6% sodium citrate for 45 ml of blood) by density gradient centrifugation of 5 minutes at 1500 rpm. The PBMC are resuspended in about 10 ml of RPMI-1640 with antibiotics. Approximately 2×10^6 cells of PBMC are added to tissue culture plates, incubated for 45-60 minutes at 37° C. with 5% CO2, aspirated, and washed twice by adding about 0.5 ml fresh RPMI-1640 with 10% non-mitogenic FBS (RPMI complete) and shaking for 15 to 30 seconds. 1.0 ml RPMI-1640 is added per well to the remaining adherent cells, which are pretreated with test compound solution about 15 minutes prior to endotoxin stimulation (1 μg/ml lipopolysaccharide from E. coli or solvent concentrations equal to those of test compounds.
Cultures are incubated for 18 hours t 37° C. in 5% CO2. Supernatants are tested from TNF-a using a commercial ELISA kit (Cistron, Pine Brook, N.J.). The IC50 is determined using SOFTmax software program.

Row | Compound | protection against endotoxin lethality [1] | inhibition at 0.1 µM ([2]; Rattus norvegicus, T-cell, in vitro concentration 0.1 μM) [%] | inhibition at 1 µM ([2]; Rattus norvegicus, T-cell, in vitro concentration 1.0 μM) [%] | inhibition at 10 µM ([2]; Rattus norvegicus, T-cell, in vitro concentration 10.0 μM) [%] | inhibition at 100 µM ([2]; Rattus norvegicus, T-cell, in vitro concentration 100.0 μM) [%] | Rat macrophage antigen presentation and subsequent production of Interleukin-2 ([2]; concentration range from 0.1 to 100 uM) | T-cell activation ([2]; in vitro, mBSA antigen, rat T-cell hybridoma) | OX-6/OX-42 double positive macrophages ([3]; 10 μM, 18 hours, positive control 59%) [%] | inhibition at 10 µM ([3]; Rattus norvegicus, Macrophage, 18 h, read-out: reduction of MHC II antigen expression on rat macrophages in vitro compared to positive control) [%] | IC50 [4] [µM]
1 | Nc1ncnc2c1ncn2[C@@H]1CC[C@@H](O)C1 [(1R,3R)-TRANS-1(9-ADENYL)CYCLOPENTAN-3-OL HYDROCHLORIDE] | protects against endotoxin lethality | 7.6 | 30.9 | 48.7 | 55.3 | inhibited | inhibits T-cell activation | 39 | ~33 | 9
2 | Nc1nc(Cl)nc2c1ncn2[C@@H]1CC[C@@H](O)C1 [(1R,3R)-Trans-1-[9-(6-amino-2-cholopurinyl)]cyclopentan-3-ol hydrochloride] | – | – | – | – | – | – | – | – | – | 4.1
3 | Nc1ncnc2c1ncn2[C@@H]1CCC[C@H]1O (relative stereo) [(±)-Trans-1-(9-adenyl)-2-hydroxycyclopentane, reference compound] | – | – | – | – | – | – | – | – | – | 22.2
